Source: PMC4579271, “Inflammatory Signaling by NOD-RIPK2 Is Inhibited by Clinically Relevant Type II Kinase Inhibitors” (Chemistry & Biology, 2015)
Like-named read-outs stand apart in the source and are kept apart here. Blank lines part the entries; values can stand above or below the compound they belong to.

Assays:
[1] = biological target: human RIPK2 recombinant kinase domain (Homo sapiens, UniProt O43353, R171C); assay: Fluorescence-based thermal shift assay; conditions: for ΔTm at 10 µM: read-out: thermal shift (ΔTm); for thermal shift (ΔTm): RIPK2 2 μM, inhibitor 10 μM
Sequence of human RIPK2 recombinant kinase domain (O43353 8-317 R171C): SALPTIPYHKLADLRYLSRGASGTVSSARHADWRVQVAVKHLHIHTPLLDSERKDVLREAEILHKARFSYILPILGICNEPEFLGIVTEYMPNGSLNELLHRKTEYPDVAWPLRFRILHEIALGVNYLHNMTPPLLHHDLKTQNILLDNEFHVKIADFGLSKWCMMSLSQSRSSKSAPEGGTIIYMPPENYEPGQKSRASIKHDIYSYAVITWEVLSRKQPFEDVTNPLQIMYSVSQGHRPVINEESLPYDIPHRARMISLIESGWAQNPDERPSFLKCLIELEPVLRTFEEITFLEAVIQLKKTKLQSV

Abl = Abl (Homo sapiens, UniProt P00519); assay: ADPGlo in vitro kinase assay; assay type: biochemical; conditions: Figure S5A
Sequence of Abl (P00519 whole entry, species assumed): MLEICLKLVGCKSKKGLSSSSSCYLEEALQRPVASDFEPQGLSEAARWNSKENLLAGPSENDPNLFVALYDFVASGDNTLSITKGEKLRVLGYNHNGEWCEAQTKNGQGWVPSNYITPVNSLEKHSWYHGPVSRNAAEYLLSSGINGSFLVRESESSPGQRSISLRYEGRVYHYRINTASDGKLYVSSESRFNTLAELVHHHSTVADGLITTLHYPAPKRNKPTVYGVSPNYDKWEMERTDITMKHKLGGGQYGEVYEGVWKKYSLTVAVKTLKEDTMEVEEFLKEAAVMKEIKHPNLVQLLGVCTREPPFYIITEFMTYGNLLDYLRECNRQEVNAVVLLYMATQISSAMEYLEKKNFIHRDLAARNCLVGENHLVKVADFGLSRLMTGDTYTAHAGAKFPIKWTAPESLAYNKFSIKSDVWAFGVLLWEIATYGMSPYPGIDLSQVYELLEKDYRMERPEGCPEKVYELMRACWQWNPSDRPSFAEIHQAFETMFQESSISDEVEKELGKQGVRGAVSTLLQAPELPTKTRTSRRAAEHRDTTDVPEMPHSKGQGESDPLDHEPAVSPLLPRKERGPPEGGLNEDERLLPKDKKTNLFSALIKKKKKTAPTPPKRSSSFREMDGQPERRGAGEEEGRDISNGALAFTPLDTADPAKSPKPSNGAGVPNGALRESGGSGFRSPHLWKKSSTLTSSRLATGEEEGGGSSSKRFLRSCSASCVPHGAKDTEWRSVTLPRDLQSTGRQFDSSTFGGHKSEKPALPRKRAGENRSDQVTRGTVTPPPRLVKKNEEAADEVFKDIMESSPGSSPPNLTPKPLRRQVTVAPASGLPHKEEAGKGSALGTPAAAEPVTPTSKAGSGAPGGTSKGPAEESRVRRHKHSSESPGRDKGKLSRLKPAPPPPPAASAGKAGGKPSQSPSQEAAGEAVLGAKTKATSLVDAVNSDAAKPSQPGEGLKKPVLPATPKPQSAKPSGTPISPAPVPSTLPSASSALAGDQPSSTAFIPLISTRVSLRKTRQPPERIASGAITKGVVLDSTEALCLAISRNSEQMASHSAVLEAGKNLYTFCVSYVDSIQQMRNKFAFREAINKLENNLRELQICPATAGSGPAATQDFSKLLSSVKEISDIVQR
Method: (§1) For ADPGlo (Promega) assays, 1 ng of Abl or 10 ng of RIPK2 was diluted in reaction buffer (40 mM Tris-HCl [pH 7.5], 20 mM MgCl2, 0.5 mM DTT, and 0.01% BSA) supplemented with 50 μM ATP and a 10-point dose range of inhibitors. Detailed information is provided in the Supplemental Experimental Procedures.
(§2) 40C centrifuge at 14,000 rpm for 15 min to collect lysates. Protein concentrations were […]
(§3) Equal amounts of proteins were separated using 8-10% SDS-PAGE, followed by overnight incubations with antibodies according to the manuf acturer’s recommendations.
(§4) AD P G l o in vitro kinase assays
(§5) For ADPGlo (Promega) assays, 1 ng Abl or 10 ng of RIPK2 was diluted in reaction buff er (40 mM Tris-HCl pH 7.5, 20 mM MgCl2, 0.5 m M DTT, 0.01% BSA) supplemented with 50 µM ATP and 10-point dose range of inhibitors. Reactions were performed at room temperature for 1 hour. Reactions were performed in 5 µL total volume (5% final concentration of DMSO) and stopped by addition of 5 µL of ADPGlo reagent for 40 min at room temperature. Luminescent signal was generated by addition of 10 µL of kinase detection reagent for 30 minutes at room temperature and determined using Victor3V platereader (Perkin Elmer). Specific signal was calculated by subtracting values in the wells without protein and inhibitor from the values in the test wells. Inhibition, % = ((specif ic signal (DMSO control) - specif ic signal (inhibitor))/ (specif ic signal (DMSO control))) x 100%. Non-linear regression to determine IC50 values was perf ormed using Prism software (GraphPad). qPCR analysis in RAW 264.7 cells
(§6) RAW cells were seeded at 2X105 cells/well in 12 well plates. Af ter 24 hours, cells were treated with inhibitors and stimulated with 10 µg/mL MDP f or 24 hours. Total RNAs were isolated using […]

RIPK2 [2] = biological target: RIPK2 (Homo sapiens, UniProt O43353); assay: ADPGlo in vitro kinase assay; assay type: biochemical; conditions: Figure S5A
Sequence of RIPK2 (Homo sapiens, UniProt O43353) (O43353 18-294 limits assumed): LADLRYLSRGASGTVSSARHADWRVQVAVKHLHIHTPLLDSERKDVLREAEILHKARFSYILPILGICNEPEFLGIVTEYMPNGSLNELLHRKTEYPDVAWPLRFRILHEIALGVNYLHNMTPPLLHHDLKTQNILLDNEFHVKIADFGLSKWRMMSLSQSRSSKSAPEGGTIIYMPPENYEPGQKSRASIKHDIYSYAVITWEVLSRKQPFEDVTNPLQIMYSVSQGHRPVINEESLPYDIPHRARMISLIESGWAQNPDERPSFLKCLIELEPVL
Method: as §1, §2, §3, §4, §5, §6

[3] = system: NF-κB activation in HEKBlue cells expressing NOD2; assay: HEKBlue NF-κB-SEAP reporter activation assay, L18-MDP stimulation; conditions: for inhibition of NOD2 (MDP) response in HEKBlue cells: Figure S5B; for EC50: Homo sapiens, HEK-Blue, 8 h, read-out: NFκB activity EC50
[4] = system: LPS pathway in THP-1 cells; assay: Flow cytometry of TNF production in THP-1 cells, LPS; assay type: cell-based, human; conditions: 10 μM
Method: Figure S7, Related to Figure 7. Inhibition of NOD2 signaling in the human monocytic cell
line THP-1. Representative FACS blots (A) and quantif ication of TNF production (B) in THP-1
cells stimulated with L18-MDP or LPS. In indicated conditions cells were preincubated with
k inase inhibitors for 1 hour before activation of NOD2 and TLR4 receptor for 2.5 hours.
(1 picture or pasted object on this page, not shown here)

[5] = system: RIPK2 ubiquitination in THP-1 cells; assay: TUBE purification of ubiquitin conjugates, L18-MDP-stimulated THP-1 cells; conditions: 100 nM pre-treatment, 200 ng/ml L18-MDP
[6] = system: phospho-Ser176-RIPK2 (p-RIPK2) in NOD2-expressing HEK293 cells; assay: Western blot of phospho-Ser176-RIPK2 in HEKBlue cells after L18-MDP
[7] = system: NOD2-dependent TNF production in primary human monocytes; assay: Flow cytometry of intracellular TNF in primary human monocytes, L18-MDP; assay type: cell-based; conditions: 200 ng/ml L18-MDP
Method: Experimental conditions are measured in 4–5 healthy donors. […] Gray background indicates range without inhibitors. See also Figure S7.

RIPK2 [8] = conditions: ref Vogt et al., 2011; cited from earlier work

Structure (SMILES): CN[C@@H]1C[C@H]2O[C@@](C)([C@@H]1OC)n1c3ccccc3c3c4c(c5c6ccccc6n2c5c31)C(=O)NC4 [Staurosporine]
ΔTm at 10 µM [1]: 9.1 °C

Structure (SMILES): COC(=O)[C@@]1(O)C[C@H]2O[C@]1(C)n1c3ccccc3c3c4c(c5c6ccccc6n2c5c31)C(=O)NC4 [K252a]
thermal shift (ΔTm) [1]: 10.0 °C

inhibition of Abl kinase activity (Abl): loss of inhibition
inhibition of RIPK2 in vitro (RIPK2 [2]): loss of inhibition
Structure (SMILES): CN1CCN(Cc2ccc(NC(=O)c3ccc(C(C)(C)C)c(C#Cc4cnc5cccnn45)c3)cc2C(F)(F)F)CC1 [CS6]
inhibition of NOD2 (MDP) response in HEKBlue cells [3]: did not inhibit

ΔTm at 10 µM [1]: 9.5 °C
Structure (SMILES): Cc1nc(Nc2ncc(C(=O)Nc3c(C)cccc3Cl)s2)cc(N2CCN(CCO)CC2)n1 [Dasatinib]

thermal shift (ΔTm) [1]: 8.4 °C
Structure (SMILES): Cc1cccc(-c2nn(C(=S)Nc3ccccc3)cc2-c2ccnc3ccccc23)n1 [TGFβ inhibitor IV (A-83-01)]

Structure (SMILES): COc1cc2ncnc(Nc3ccc(F)c(Cl)c3)c2cc1OCCCN1CCOCC1 [gefitinib]
LPS pathway TNF production [4]: also inhibited the LPS pathway
L18-MDP-induced RIPK2 ubiquitination [5]: less robust inhibitory effects

Structure (SMILES): CNC(=O)c1cc(Oc2ccc(NC(=O)Nc3ccc(Cl)c(C(F)(F)F)c3)cc2)ccn1 [sorafenib]
EC50 [3]: 16.9 nM
inhibition of L18-MDP-induced p-RIPK2 [6]: inhibited by low nanomolar concentrations

Structure (SMILES): CNC(=O)c1cc(Oc2ccc(NC(=O)Nc3ccc(Cl)c(C(F)(F)F)c3)c(F)c2)ccn1 [regorafenib]
concentration completely abrogating NOD2-dependent TNF production [7]: 100 nM
EC50 [3]: 3.8 nM
inhibition of L18-MDP-induced p-RIPK2 ([6]; 1 μg/ml L18-MDP, 30 min): inhibited by low nanomolar concentrations
L18-MDP-induced RIPK2 ubiquitination [5]: less robust inhibitory effects

Structure (SMILES): Cc1cn(-c2cc(NC(=O)c3ccc(C)c(Nc4nccc(-c5cccnc5)n4)c3)cc(C(F)(F)F)c2)cn1 [nilotinib]
inhibition of RIPK2 in vitro (RIPK2 [2]): did not inhibit
inhibition of NOD2 (MDP) response in HEKBlue cells [3]: did not inhibit

Structure (SMILES): CN1CCC(Nc2ncc3ncnc(Nc4ccc(F)c(Cl)c4)c3n2)CC1 [BIBX1382]
ΔTm at 10 µM [1]: 8.7 °C

ΔTm at 10 µM [1]: 9.6 °C
Structure (SMILES): c1cc(-c2cnn3cc(-c4ccc(OCCN5CCCCC5)cc4)cnc23)ccn1 [Dorsomorphin]

thermal shift (ΔTm) [1]: 12.1 °C
Structure (SMILES): c1ccc2c(-c3cnn4cc(-c5ccc(N6CCNCC6)cc5)cnc34)ccnc2c1 [LDN-193189]
IC50 (RIPK2 [8]): 25 nM
